{"source": "PubChem BioAssay (NCI)", "experiment_in_all_cases": "NCI anticancer screen, dose series, 384-well format", "key": {"HT29 colon": {"system": "HT29 colon"}, "MDA-MB-468 breast": {"system": "MDA-MB-468 breast"}, "SK-MEL-2 melanoma": {"system": "SK-MEL-2 melanoma"}, "NCI-H226 lung": {"system": "NCI-H226 lung"}, "CCRF-CEM leukemia": {"system": "CCRF-CEM leukemia"}, "NCI-H522 lung": {"system": "NCI-H522 lung"}, "786-0 renal": {"system": "786-0 renal"}, "HS 578T breast": {"system": "HS 578T breast"}, "MALME-3M melanoma": {"system": "MALME-3M melanoma"}, "NCI-H23 lung": {"system": "NCI-H23 lung"}, "NCI/ADR-RES ovarian": {"system": "NCI/ADR-RES ovarian"}, "OVCAR-3 ovarian": {"system": "OVCAR-3 ovarian"}, "BT-549 breast": {"system": "BT-549 breast"}, "SF-539 CNS": {"system": "SF-539 CNS"}, "MCF7 breast": {"system": "MCF7 breast"}, "SNB-75 CNS": {"system": "SNB-75 CNS"}, "UO-31 renal": {"system": "UO-31 renal"}, "ACHN renal": {"system": "ACHN renal"}, "K-562 leukemia": {"system": "K-562 leukemia"}, "SR leukemia": {"system": "SR leukemia"}, "T-47D breast": {"system": "T-47D breast"}, "EKVX NSCLC": {"system": "EKVX NSCLC"}, "OVCAR-4 ovarian": {"system": "OVCAR-4 ovarian"}, "M14 melanoma": {"system": "M14 melanoma"}, "RPMI-8226 leukemia": {"system": "RPMI-8226 leukemia"}, "PC-3 prostate": {"system": "PC-3 prostate"}, "RXF 393 renal": {"system": "RXF 393 renal"}, "SK-OV-3 ovarian": {"system": "SK-OV-3 ovarian"}, "SW-620 colon": {"system": "SW-620 colon"}, "IGROV1 ovarian": {"system": "IGROV1 ovarian"}, "OVCAR-8 ovarian": {"system": "OVCAR-8 ovarian"}, "MDA-MB-435 melanoma": {"system": "MDA-MB-435 melanoma"}, "OVCAR-5 ovarian": {"system": "OVCAR-5 ovarian"}, "MOLT-4 leukemia": {"system": "MOLT-4 leukemia"}, "HCT-116 colon": {"system": "HCT-116 colon"}, "CAKI-1 renal": {"system": "CAKI-1 renal"}, "SK-MEL-28 melanoma": {"system": "SK-MEL-28 melanoma"}, "SNB-19 CNS": {"system": "SNB-19 CNS"}, "SN12C renal": {"system": "SN12C renal"}, "HCC-2998 colon": {"system": "HCC-2998 colon"}, "TK-10 renal": {"system": "TK-10 renal"}, "NCI-H322M lung": {"system": "NCI-H322M lung"}, "HOP-62 NSCLC": {"system": "HOP-62 NSCLC"}, "COLO 205 colon": {"system": "COLO 205 colon"}, "LOX IMVI melanoma": {"system": "LOX IMVI melanoma"}, "KM12 colon": {"system": "KM12 colon"}, "A498 renal": {"system": "A498 renal"}}, "note": "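Abbreviation: GI50, concentration required for 50% inhibition of growth. TGI: total growth inhibition.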"}
{"smiles": "CC(C)(O)c1cc(Nc2cc(Oc3cn(C4CC4)nc3C3CCOCC3)ccn2)ccn1", "values": [{"measurement": "GI50", "setting": "HT29 colon", "result": 54.1, "unit": "µM"}, {"measurement": "TGI", "setting": "HT29 colon", "result": "> 100", "unit": "µM"}, {"measurement": "GI50", "setting": "MDA-MB-468 breast", "result": 33.8, "unit": "µM"}, {"measurement": "TGI", "setting": "MDA-MB-468 breast", "result": "> 83.5", "unit": "µM"}, {"measurement": "GI50", "setting": "SK-MEL-2 melanoma", "result": "> 100", "unit": "µM"}, {"measurement": "TGI", "setting": "SK-MEL-2 melanoma", "result": "> 100", "unit": "µM"}, {"measurement": "GI50", "setting": "NCI-H226 lung", "result": "> 93.3", "unit": "µM"}, {"measurement": "TGI", "setting": "NCI-H226 lung", "result": "> 100", "unit": "µM"}, {"measurement": "GI50", "setting": "CCRF-CEM leukemia", "result": 46.7, "unit": "µM"}, {"measurement": "TGI", "setting": "CCRF-CEM leukemia", "result": "> 100", "unit": "µM"}, {"measurement": "GI50", "setting": "NCI-H522 lung", "result": "> 68.6", "unit": "µM"}, {"measurement": "TGI", "setting": "NCI-H522 lung", "result": "> 100", "unit": "µM"}, {"measurement": "GI50", "setting": "786-0 renal", "result": "> 72.6", "unit": "µM"}, {"measurement": "TGI", "setting": "786-0 renal", "result": "> 100", "unit": "µM"}, {"measurement": "GI50", "setting": "HS 578T breast", "result": 37.7, "unit": "µM"}, {"measurement": "TGI", "setting": "HS 578T breast", "result": "> 100", "unit": "µM"}, {"measurement": "GI50", "setting": "MALME-3M melanoma", "result": "> 77.1", "unit": "µM"}, {"measurement": "TGI", "setting": "MALME-3M melanoma", "result": "> 100", "unit": "µM"}, {"measurement": "GI50", "setting": "NCI-H23 lung", "result": 23.1, "unit": "µM"}, {"measurement": "TGI", "setting": "NCI-H23 lung", "result": "> 100", "unit": "µM"}, {"measurement": "GI50", "setting": "NCI/ADR-RES ovarian", "result": "> 100", "unit": "µM"}, {"measurement": "TGI", "setting": "NCI/ADR-RES ovarian", "result": "> 100", "unit": "µM"}, {"measurement": "GI50", "setting": "OVCAR-3 ovarian", "result": 52.8, "unit": "µM"}, {"measurement": "TGI", "setting": "OVCAR-3 ovarian", "result": "> 100", "unit": "µM"}, {"measurement": "GI50", "setting": "BT-549 breast", "result": 38.7, "unit": "µM"}, {"measurement": "TGI", "setting": "BT-549 breast", "result": "> 100", "unit": "µM"}, {"measurement": "GI50", "setting": "SF-539 CNS", "result": "> 100", "unit": "µM"}, {"measurement": "TGI", "setting": "SF-539 CNS", "result": "> 100", "unit": "µM"}, {"measurement": "GI50", "setting": "MCF7 breast", "result": 29.9, "unit": "µM"}, {"measurement": "TGI", "setting": "MCF7 breast", "result": "> 100", "unit": "µM"}, {"measurement": "GI50", "setting": "SNB-75 CNS", "result": "> 91.6", "unit": "µM"}, {"measurement": "TGI", "setting": "SNB-75 CNS", "result": "> 100", "unit": "µM"}, {"measurement": "GI50", "setting": "UO-31 renal", "result": "> 100", "unit": "µM"}, {"measurement": "TGI", "setting": "UO-31 renal", "result": "> 100", "unit": "µM"}, {"measurement": "GI50", "setting": "ACHN renal", "result": "> 100", "unit": "µM"}, {"measurement": "TGI", "setting": "ACHN renal", "result": "> 100", "unit": "µM"}, {"measurement": "GI50", "setting": "K-562 leukemia", "result": 26.3, "unit": "µM"}, {"measurement": "TGI", "setting": "K-562 leukemia", "result": "> 100", "unit": "µM"}, {"measurement": "GI50", "setting": "SR leukemia", "result": 24.8, "unit": "µM"}, {"measurement": "TGI", "setting": "SR leukemia", "result": "> 75.9", "unit": "µM"}, {"measurement": "GI50", "setting": "T-47D breast", "result": 32.6, "unit": "µM"}, {"measurement": "TGI", "setting": "T-47D breast", "result": "> 100", "unit": "µM"}, {"measurement": "GI50", "setting": "EKVX NSCLC", "result": 51.6, "unit": "µM"}, {"measurement": "TGI", "setting": "EKVX NSCLC", "result": "> 100", "unit": "µM"}, {"measurement": "GI50", "setting": "OVCAR-4 ovarian", "result": "> 100", "unit": "µM"}, {"measurement": "TGI", "setting": "OVCAR-4 ovarian", "result": "> 100", "unit": "µM"}, {"measurement": "GI50", "setting": "M14 melanoma", "result": "> 100", "unit": "µM"}, {"measurement": "TGI", "setting": "M14 melanoma", "result": "> 100", "unit": "µM"}, {"measurement": "GI50", "setting": "RPMI-8226 leukemia", "result": 45.5, "unit": "µM"}, {"measurement": "TGI", "setting": "RPMI-8226 leukemia", "result": "> 91", "unit": "µM"}, {"measurement": "GI50", "setting": "PC-3 prostate", "result": 76.1, "unit": "µM"}, {"measurement": "TGI", "setting": "PC-3 prostate", "result": "> 100", "unit": "µM"}, {"measurement": "GI50", "setting": "RXF 393 renal", "result": 43.5, "unit": "µM"}, {"measurement": "TGI", "setting": "RXF 393 renal", "result": "> 100", "unit": "µM"}, {"measurement": "GI50", "setting": "SK-OV-3 ovarian", "result": 85.1, "unit": "µM"}, {"measurement": "TGI", "setting": "SK-OV-3 ovarian", "result": "> 100", "unit": "µM"}, {"measurement": "GI50", "setting": "SW-620 colon", "result": "> 91.7", "unit": "µM"}, {"measurement": "TGI", "setting": "SW-620 colon", "result": "> 100", "unit": "µM"}, {"measurement": "GI50", "setting": "IGROV1 ovarian", "result": "> 100", "unit": "µM"}, {"measurement": "TGI", "setting": "IGROV1 ovarian", "result": "> 100", "unit": "µM"}, {"measurement": "GI50", "setting": "OVCAR-8 ovarian", "result": "> 100", "unit": "µM"}, {"measurement": "TGI", "setting": "OVCAR-8 ovarian", "result": "> 100", "unit": "µM"}, {"measurement": "GI50", "setting": "MDA-MB-435 melanoma", "result": "> 100", "unit": "µM"}, {"measurement": "TGI", "setting": "MDA-MB-435 melanoma", "result": "> 100", "unit": "µM"}, {"measurement": "GI50", "setting": "OVCAR-5 ovarian", "result": "> 100", "unit": "µM"}, {"measurement": "TGI", "setting": "OVCAR-5 ovarian", "result": "> 100", "unit": "µM"}, {"measurement": "GI50", "setting": "MOLT-4 leukemia", "result": 42.7, "unit": "µM"}, {"measurement": "TGI", "setting": "MOLT-4 leukemia", "result": "> 100", "unit": "µM"}, {"measurement": "GI50", "setting": "HCT-116 colon", "result": 46.6, "unit": "µM"}, {"measurement": "TGI", "setting": "HCT-116 colon", "result": "> 100", "unit": "µM"}, {"measurement": "GI50", "setting": "CAKI-1 renal", "result": 68.1, "unit": "µM"}, {"measurement": "TGI", "setting": "CAKI-1 renal", "result": "> 100", "unit": "µM"}, {"measurement": "GI50", "setting": "SK-MEL-28 melanoma", "result": "> 80.5", "unit": "µM"}, {"measurement": "TGI", "setting": "SK-MEL-28 melanoma", "result": "> 100", "unit": "µM"}, {"measurement": "GI50", "setting": "SNB-19 CNS", "result": "> 100", "unit": "µM"}, {"measurement": "TGI", "setting": "SNB-19 CNS", "result": "> 100", "unit": "µM"}, {"measurement": "GI50", "setting": "SN12C renal", "result": "> 82", "unit": "µM"}, {"measurement": "TGI", "setting": "SN12C renal", "result": "> 100", "unit": "µM"}, {"measurement": "GI50", "setting": "HCC-2998 colon", "result": "> 100", "unit": "µM"}, {"measurement": "TGI", "setting": "HCC-2998 colon", "result": "> 100", "unit": "µM"}, {"measurement": "GI50", "setting": "TK-10 renal", "result": 67.2, "unit": "µM"}, {"measurement": "TGI", "setting": "TK-10 renal", "result": "> 100", "unit": "µM"}, {"measurement": "GI50", "setting": "NCI-H322M lung", "result": "> 100", "unit": "µM"}, {"measurement": "TGI", "setting": "NCI-H322M lung", "result": "> 100", "unit": "µM"}, {"measurement": "GI50", "setting": "HOP-62 NSCLC", "result": "> 100", "unit": "µM"}, {"measurement": "TGI", "setting": "HOP-62 NSCLC", "result": "> 100", "unit": "µM"}, {"measurement": "GI50", "setting": "COLO 205 colon", "result": 63.2, "unit": "µM"}, {"measurement": "TGI", "setting": "COLO 205 colon", "result": "> 100", "unit": "µM"}, {"measurement": "GI50", "setting": "LOX IMVI melanoma", "result": 24.9, "unit": "µM"}, {"measurement": "TGI", "setting": "LOX IMVI melanoma", "result": 84.9, "unit": "µM"}, {"measurement": "GI50", "setting": "KM12 colon", "result": 97.1, "unit": "µM"}, {"measurement": "TGI", "setting": "KM12 colon", "result": "> 100", "unit": "µM"}, {"measurement": "GI50", "setting": "A498 renal", "result": 66.8, "unit": "µM"}, {"measurement": "TGI", "setting": "A498 renal", "result": "> 100", "unit": "µM"}]}
